In US9670217B2, “Process for preparing chlorins and their pharmaceutical uses” (UNIVERSIDADE DE COIMBRA, priority 2008, dated 2017):

Tests used:
[1] = Absorption spectra (λmax, molar absorption coefficient); format: physicochemical; conditions: ethanol solutions
Protocol: Absorption spectra were recorded on a Shimadzu UV-2100 spectrophotometer or with a Carry 50 Biospectrophotometer (Varian, Mulgrave, USA). Fluorescence spectra were measured with a Spex Fluorolog 3 spectrophotometer, with correction for the wavelength dependence system (RCA C31034 photomultiplier), or with a PerkinElmer LS 50 spectrofluorimeter. Transient absorption spectra were measured with an Applied Photophysics LKS 60 nanosecond laser flash photolysis kinetic spectrometer, using the third harmonic of a Spectra-Physics Quanta Ray GCR 130-01 Nd/YAG laser for excitation, a Hamamatsu 1P28 photomultiplier and a Hewlett-Packard Infinium oscilloscope (1 GS/s). Flash photolysis measurements were made in the presence of air and in argon saturated solutions. Photoacoustic calorimetry employed the same Nd/YAG laser, a home-made front-face photoacoustic cell with a 2.25 MHz Panametrics transducer (model 5676) and a Tektronix DSA 601 transient recorder. Room-temperature singlet-oxygen phosphorescence was measured at 1270 nm with a Hamamatsu R5509-42 photomultiplier, cooled to 193 K in a liquid nitrogen chamber (Products for Research model PC176TSCE005), following laser excitation of aerated solutions at 355 nm, using an adapted Applied Photophysics spectrometer. Singlet oxygen emission at 1270 nm was also monitored with a liquid nitrogen-cooled germanium detector (North Coast) coupled to a Tectronix Digitizing scope (TDS 520B), following sample excitation with 5 ns laser pulses of the third harmonic (355 nm) generated by a Q-switched Nd:YAG laser (Continuum Surelite II).
This is indicative of little aggregation between the molecules, which exist mostly as monomers at these concentrations in the solvents studied. Table 1 presents typical red and infrared molar absorption coefficients (εmax) and wavelength maxima. The same table also presents representative fluorescence quantum yields (ΦF) of Luzitins. The fluorescence quantum yields decrease of these molecules decrease in the presence of chlorine substituents, a fingerprint of the heavy atom effect expected for such molecules.

[2] = Photobleaching under 748 nm diode laser irradiation; format: physicochemical; conditions: PBS:methanol; 100 mW laser irradiation at 748 nm
Description: The irradiation of bacteriochlorins in the photobleaching experiments employed the 748 nm Lynx diode laser. For animal studies we employed a costumer-made Hamamatsu diode laser, type LA0873. S/N M070301, which delivered 140 mW at 748 nm. This diode laser was controlled by a ThorLabs 500 mA ACC/APC Laser Diode Controller and in-house electronics. The laser energies of this and the other higher-energy lasers employed in this work were regularly checked with an Ophir model AN/2E laser power meter.
Photobleaching experiments were conducted in PBS. PBS:methanol (50:50) and methanol solutions. The solutions were irradiated in a cuvette with an optical path of 1 cm and the Lynx diode laser. The initial absorption of the solutions was ca. 0.8. The mechanism of photobleaching was assessed with the irradiation of the sensitizer using the Hamamatsu diode laser at 80 mW. The sensitizer was irradiated in PBS and in the presence of ascorbic acid or azide.
The chemical stability of the compounds was studied exposing them to light, air, and pH changes. The most significant degradation occurs for aerated solutions irradiated by light of the appropriate wavelength. In such circumstances the photobleaching of the compounds follows a first-order rate and is proportional to the energy of the incident laser light. In general, it was also observed that the photobleaching rate increases with the amount of water present in the solution. Bennett reported the photoconversion of Foscan® (m-THPC) and of the analogous bacteriochlorin (m-THPB) in PBS:methanol (50:50). Scherz reported the photoconversion of Tookad® in acetone and Triton-X:PBS [3]. For the purpose of comparing the photostability of Luzitins with that of Foscan® and Tookad®, we present in Table 2 the half-lives (t1/2) of representative drugs described herein, together with those of Foscan and Tookad® normalized for a laser power of 100 mW.
Luzitin-FMet was dissolved in PBS:methanol (2:3), transferred to a 1 cm quartz cell and its absorption spectrum was registered, FIG. 6. The quartz cell was then placed in the beam of the 748 nm Lynx diode laser, previously unfocused to have a beam diameter coincident with the window of the quartz cell. The laser power measured under these conditions was 28.8 mW. Every 5 minutes the irradiation was interrupted and a new absorption spectrum was registered. This procedure was followed for 65 minutes. The photobleaching follows the kinetics of a first-order reaction in the time window of the experiment. […] Whereas the bacteriochlorin peak at 743 nm is reduced from an absorbance of 1.128 to 0.337, the absorption of the chlorin only increases from 0.114 to 0.151. Taking into consideration the molar absorption coefficients of the compounds at these wavelengths, it is clear that whereas 70% of the bacteriochlorin is destroyed during the irradiation, only a few percent of chlorin are formed.
The half-lives of other bacteriochlorins normalized 100 mW laser irradiation at 748 nm are presented in […], together with the literature data for the photodegradation of Foscan® and Tookad® normalized for the same light intensity. It was also observed that the half-live to Luzitin-Cl is increased by a factor of 30 when the PBS solution of the photosensitizer is saturated with Argon, which reduces the oxygen concentration in the solution.

[3] = n-octanol:water partition coefficient (shake-flask); format: physicochemical
Protocol: The n-octanol:water partition coefficients (CP) were measured using a minor modification of the shake-flask method described by some of us in the literature. The modification concerned the excitation of the absorption band ca 500 nm and the collection of the fluorescence in the red/IR region.

[4] = system: A-549 (human non-small cell lung cancer); assay: Cytotoxicity in the dark, resazurin assay; format: cell-based; design: unit not given here; conditions: A-549, dark
Protocol: The cell lines employed in laser irradiation were the HT-29 (human colon carcinoma), PC-3 (human prostate carcinoma), SW2 (human small cell lung cancer), A-549 (human non-small cell lung cancer). S91/I3 (mouse melanoma) and CT26 (mouse colon carcinoma). They were used both for cytotoxicity and photocytotoxicity experiments. PC-3. SW2 and S91113 cells were cultured in RPMI-1640 medium (Sigma-Aldrich, Steinheim, Germany) and HT-29, A-549 and CT26 cells were cultured in Dulbecco's Modified Eagle Medium (DMEM) (Cambrex Bioscience, Verviers, Belgium). […] For the in vitro studies, cells at 85-90% confluence, were detached with Trypsin-Versene-EDTA solution (Cambrex Bioscience, Verviers, Belgium), counted and seeded in flat-bottom 96-well plates at the desired densities.
Cell viability assay. In the end of the experiences cell viability was evaluated by the resazurin reduction assay. […] The absorbance values of each well were measured at 540 nm and 630 nm using a microplate reader Multiskan Ex (Thermo-Electron Corporation, Vartaa, Finland).
Cytotoxicity. […] After the incubation the cell viability was evaluated. […] Cytotoxicity was quantified by expressing cell death relatively to untreated cells (% of control cells). […]

[5] = system: PC-3 (human prostate carcinoma); assay: Cell photosensitization, 748 nm diode laser, resazurin; format: cell-based; conditions: 6 J/cm^2 diode laser irradiation at 28.5 mW
[6] = system: A-549 (human non-small cell lung carcinoma); assay: as above; format: cell-based
[7] = system: CT26 (murine colon carcinoma); assay: as above; format: cell-based, mouse; conditions: 6 J/cm^2 diode laser irradiation at 28.5 mW

SMILES: CNS(=O)(=O)c1ccc(F)c(-c2c3nc(c(-c4c(F)ccc(S(=O)(=O)NC)c4F)c4ccc([nH]4)c(-c4c(F)ccc(S(=O)(=O)NC)c4F)c4nc(c(-c5c(F)ccc(S(=O)(=O)NC)c5F)c5ccc2[nH]5)CC4)CC3)c1F [Luzitin-F2Met, 5,10,15,20-tetrakis(2,6-fluoro-3-N-methylsulfamoylphenyl)bacteriochlorin]
- λmax [1]: 742.5 nm
- εmax ([1]; corrected for the chlorin content): 78,000^d) M^−1 cm^−1
- t1/2 (photobleaching half-life) [2]: 6,480 sec
- log KOW (n-octanol:water partition coefficient) [3]: 2.7
- highest concentration that causes relatively no effect in viability in the dark [4]: 50
- concentration of sensitizer required to kill 90% of cells (LD90) [5]: 0.5 µM
- cell kill ([6]; 0.5 μM, laser light dose 6 J/cm^2, incubation 18 hours): 100%
- concentration of sensitizer required to kill 90% of cells (LD90) ([6]; 6 J/cm^2 diode laser irradiation at 28.5 mW): 0.5 µM
- concentration of sensitizer required to kill 90% of cells (LD90) [7]: 1.0 µM
